Consider 1 substance from patent publication US12414567B2, “Wear resistant antimicrobial compositions and methods of use” (ECOLAB USA INC., priority 2010, dated 2025).

In the data set the test system is MatTek EpiOcular ocular tissues. Put plainly: MatTek EpiOcular model ocular irritation (MTT cell viability, Example 16). It counts as cell-based. The settings on record: positive control, 10%, all exposure times (5-60 minutes). Here is the method: Each of these compositions was diluted at a rate of 2 oz/gal before they were tested using the Epioccular model.
The MatTek EpiOcular™ model can be used to assess the potential ocular irritation of test articles by determining the cell viability of the tissue after exposure to the test articles. The objective of this study was to assess the ocular irritation potential of 1.56% (w/w) 12837.36.1. Control and test article exposure times were 5 minutes, 10 minutes, 20 minutes, 40 minutes and 60 minutes. After the exposures MTT was performed and data was normalized to the negative control, sterile ultrapure water (water purified and deionized˜18.2 MΩ-cm). The positive control, 10% benzalkonium chloride (BC), was effective, reducing cell viability to <10% of control for all exposure times (Tables 2a-e) and FIG. 1). The relative cell viability of ocular tissues treated with 1.56% (w/w) 12837.36.1 was 29.7%, 26.8%, 15.3%, 8.9% and 8.0% after 5, 10, 20, 40 and 60 minute exposures, respectively (Tables 2a-e and FIG. 1), resulting in an ET50 of 1.54 minutes and an estimated in vivo Draize score of 77.2 (Table 1).
The MatTek EipOcular™ model can be used to assess the potential ocular irritation of test articles by determining the cell viability of the tissue after exposure to the test articles. The objective of this study was to assess the ocular irritation potential of 1.56% (w/w) 12837.39.1. […]

As for benzalkonium chloride, the cell viability is on record as < 10 % of control.
